From patent US9980943B2, “Methods of treating muscular dystrophy” (BOARD OF REGENTS OF THE NEVADA SYSTEM OF HIGHER EDUCATION, …, priority 2013, dated 2018) come the findings set out here.

Holding throughout (format): cell-based, mouse
Assay [1] has as its system α7 integrin (LacZ reporter in α7βgal+/− myoblasts). Briefly: Myoblast α7+/LacZ integrin FDG assay (Burkin assay in myoblasts, 96-well). To be noted: α7+/LacZ myoblasts, 96-well.
In assay [2] the test system is α7 integrin (LacZ reporter in α7+/LacZ myotubes). Briefly: Myotube α7 integrin FDG assay (Burkin assay in myotubes, 96-well). The settings on record: myotubes.
Assay [3] concerns β-galactosidase in CMV-LacZ C2C12 myoblasts. Briefly: CMV-LacZ secondary screen in C2C12 myoblasts (β-Gal stabilizing assay). The settings on record: CMV-LacZ C2C12 myoblasts. In a few lines: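 β-Gal level was the read-out, measured in a clonal C2C12 line expressing LacZ from a CMV promoter. Dose-response curves used six concentrations, 0.5 μM up to 40 μM, with duplicate points.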

For assay [4], the system named is β-galactosidase in CMV-LacZ C2C12 myotubes. Briefly: CMV-LacZ secondary screen in C2C12 myotubes (β-Gal stabilizing assay). The settings on record: C2C12 CMV-LacZ myotubes, fold relative to DMSO. In a few lines: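 A secondary screen identifies compounds that stabilize β-gal independently of the native promoter, using CMV-LacZ C2C12 cells. Curves span 0.5–40 μM at six levels, in duplicate.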

`CC(C)Oc1cccc(C(=O)Nc2ccc(CN3CCOCC3)cc2)c1` [MLS000062431-01]: the “Burkin Assay in Myoblasts, signal relative to DMSO” value was determined as 0.9542 in assay [1] (0.5 uM); 0.9582 in assay [1] (1 uM); 1.016 in assay [1] (5 uM); 1.209 in assay [1] (10 uM); 1.789 in assay [1] (20 uM); 0.9038 in assay [1] (40 uM). For the same compound, the “Burkin Assay in Myotubes, α7 integrin LacZ reporter signal relative to DMSO” value in assay [2] (0.5 uM) was found to be 0.9571; in assay [2] (1 uM), 0.8415; in assay [2] (5 uM) it was 1.178; in assay [2] (10 uM), 1.1989; in assay [2] (20 uM), 0.7643; in assay [2] (40 uM) it was 0.8841. For the same compound, the “CMV-LACZ in Myoblasts (β-galactosidase activity relative to DMSO)” value amounted to 0.9557 in assay [3] (0.5 uM); 1.1631 in assay [3] (1 uM); 0.9848 in assay [3] (5 uM); 1.1632 in assay [3] (10 uM); 1.0467 in assay [3] (20 uM); 1.0993 in assay [3] (40 uM). Also, the “CMV-LACZ in Myotubes, signal relative to DMSO” value in assay [4] (0.5 uM) is 0.9133; in assay [4] (1 uM), 0.9743; in assay [4] (5 uM), 0.9004; in assay [4] (10 uM) it was 0.9690; in assay [4] (20 uM) it was 0.8812; in assay [4] (40 uM) it was 1.2047.
Consider `Cc1cccc(NCC(=O)N/N=C\c2ccccn2)c1` [MLS000710288-01], for which the “Burkin Assay in Myoblasts, signal relative to DMSO” value in assay [1] (0.5 uM) turned out to be 1.168; in assay [1] (1 uM) it was 1.305; in assay [1] (5 uM) it was 1.3928; in assay [1] (10 uM) it was 1.1778; in assay [1] (20 uM), 0.8681; in assay [1] (40 uM) it was 0.5963. Moreover, the “Burkin Assay in Myotubes, α7 integrin LacZ reporter signal relative to DMSO” value in assay [2] (0.5 uM) is reported as 1.076; in assay [2] (1 uM), 0.9575; in assay [2] (5 uM), 1.084; in assay [2] (10 uM) it was 0.9598; in assay [2] (20 uM), 1.024; in assay [2] (40 uM) it was 0.8202. For the same compound, the “CMV-LACZ in Myoblasts (β-galactosidase activity relative to DMSO)” value in assay [3] (0.5 uM) is on record as 1.0338; in assay [3] (1 uM) it was 0.9325; in assay [3] (5 uM), 1.0737; in assay [3] (10 uM), 1.2515; in assay [3] (20 uM) it was 1.1193; in assay [3] (40 uM), 0.9063. For the same compound, the “CMV-LACZ in Myotubes, signal relative to DMSO” value in assay [4] (0.5 uM) turned out to be 1.0371; in assay [4] (1 uM), 1.1133; in assay [4] (5 uM), 1.0717; in assay [4] (10 uM), 1.1225; in assay [4] (20 uM), 0.9400; in assay [4] (40 uM), 0.8905.
`Cc1ccc2c(c1)/C(=C/c1ccco1)C(=O)N2` [MLS000682750-01]: the “Burkin Assay in Myoblasts, signal relative to DMSO” value in assay [1] (0.5 uM) was 1.203; in assay [1] (1 uM), 1.02; in assay [1] (5 uM), 1.229; in assay [1] (10 uM), 1.076; in assay [1] (20 uM), 1.124; in assay [1] (40 uM), 1.103. Further, the “Burkin Assay in Myotubes, α7 integrin LacZ reporter signal relative to DMSO” value is 0.9957 in assay [2] (0.5 uM); 0.9939 in assay [2] (1 uM); 1.073 in assay [2] (5 uM); 0.8839 in assay [2] (10 uM); 1.002 in assay [2] (20 uM); 0.7064 in assay [2] (40 uM). Besides, the “CMV-LACZ in Myoblasts (β-galactosidase activity relative to DMSO)” value in assay [3] (0.5 uM) came to 0.9679; in assay [3] (1 uM), 1.0467; in assay [3] (5 uM) it was 0.8717; in assay [3] (10 uM), 0.9934; in assay [3] (20 uM), 1.1433; in assay [3] (40 uM) it was 1.0404. Further, the “CMV-LACZ in Myotubes, signal relative to DMSO” value was 1.0248 in assay [4] (0.5 uM); 0.9638 in assay [4] (1 uM); 1.1285 in assay [4] (5 uM); 1.0939 in assay [4] (10 uM); 1.1189 in assay [4] (20 uM); 1.0579 in assay [4] (40 uM).
Take `O=C(N/N=C/c1c[nH]c2ccccc12)c1cc(Cl)ccc1O` [MLS001196572-01]: the “Burkin Assay in Myoblasts, signal relative to DMSO” value in assay [1] (0.5 uM) was 0.8826; in assay [1] (1 uM) it was 0.7626; in assay [1] (5 uM) it was 1.224; in assay [1] (10 uM) it was 0.9483; in assay [1] (20 uM), 0.9362; in assay [1] (40 uM), 0.9345. Besides, the “Burkin Assay in Myotubes, α7 integrin LacZ reporter signal relative to DMSO” value came to 0.9236 in assay [2] (0.5 uM); 0.8882 in assay [2] (1 uM); 1.148 in assay [2] (5 uM); 0.9294 in assay [2] (10 uM); 0.9805 in assay [2] (20 uM); 0.7181 in assay [2] (40 uM). In addition, the “CMV-LACZ in Myoblasts (β-galactosidase activity relative to DMSO)” value in assay [3] (0.5 uM) came out at 1.0105; in assay [3] (1 uM), 1.3172; in assay [3] (5 uM), 1.0605; in assay [3] (10 uM), 0.9456; in assay [3] (20 uM), 1.0767; in assay [3] (40 uM), 1.0778. The “CMV-LACZ in Myotubes, signal relative to DMSO” value in assay [4] (0.5 uM) is 0.9632; in assay [4] (1 uM) it was 0.9379; in assay [4] (5 uM) it was 0.9853; in assay [4] (10 uM) it was 1.0223; in assay [4] (20 uM), 1.1456; in assay [4] (40 uM), 1.1422.
Take `CCCC(=O)OCC(=O)c1[nH]c(C)c(C(C)=O)c1C` [MLS001007892-01]: the “Burkin Assay in Myoblasts, signal relative to DMSO” value in assay [1] (0.5 uM) worked out at 1.127; in assay [1] (1 uM), 1.037; in assay [1] (5 uM), 1.016; in assay [1] (10 uM) it was 1.23; in assay [1] (20 uM), 0.7225; in assay [1] (40 uM), 0.4983. The “Burkin Assay in Myotubes, α7 integrin LacZ reporter signal relative to DMSO” value amounted to 0.9046 in assay [2] (0.5 uM); 1.013 in assay [2] (1 uM); 0.9742 in assay [2] (5 uM); 1.075 in assay [2] (10 uM); 0.8343 in assay [2] (20 uM); 0.9888 in assay [2] (40 uM). For the same compound, the “CMV-LACZ in Myoblasts (β-galactosidase activity relative to DMSO)” value in assay [3] (0.5 uM) was 0.9338; in assay [3] (1 uM), 0.8108; in assay [3] (5 uM), 1.0511; in assay [3] (10 uM) it was 1.1495; in assay [3] (20 uM) it was 0.6390; in assay [3] (40 uM) it was 0.4953. Besides, the “CMV-LACZ in Myotubes, signal relative to DMSO” value was 1.1673 in assay [4] (0.5 uM); 0.9291 in assay [4] (1 uM); 1.0066 in assay [4] (5 uM); 0.9543 in assay [4] (10 uM); 1.2170 in assay [4] (20 uM); 1.0540 in assay [4] (40 uM).
